Reference: patent publication US5290776A, “Azole derivatives” (Imperial Chemical Industries, PLC, priority 1991, dated 1994)

Key:
[1] = molecular target: T1, adenosine receptor known as A1 (Cavia porcellus, UniProt P47745); assay: Guinea-pig Atrial Bradycardic Test; format: cell-based; conditions: antagonism of bradycardic effect of 2-chloroadenosine, beating guinea-pig atrial preparation; read-out: pA2 (converted)
T1 construct: Atrial pairs are obtained from guinea-pigs; from tissue; host or cells: guinea-pig atrial pairs (Dunkin Hartley)
T1 sequence (P47745 1-326): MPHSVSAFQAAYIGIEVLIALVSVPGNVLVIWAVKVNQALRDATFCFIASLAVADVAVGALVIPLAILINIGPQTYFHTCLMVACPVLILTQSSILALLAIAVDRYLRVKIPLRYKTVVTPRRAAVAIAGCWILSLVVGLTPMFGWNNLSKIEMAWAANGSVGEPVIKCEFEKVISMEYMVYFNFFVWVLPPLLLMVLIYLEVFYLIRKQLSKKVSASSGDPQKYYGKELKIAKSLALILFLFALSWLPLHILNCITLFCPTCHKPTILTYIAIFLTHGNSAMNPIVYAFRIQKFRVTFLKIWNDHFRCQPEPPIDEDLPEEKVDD
Method: (c) Guinea-pig Atrial Bradycardic Test
The spontaneously beating atria are then placed under a resting tension of 1 g and allowed to equilibrate for 50 minutes with continuous overflow. Overflow is then stopped and adenosine deaminase (1 Unit/ml) added to prevent the accumulation of endogenously produced adenosine. […] After washout during 30 minutes, adenosine deaminase is readministered to the bath which is allowed to equilibrate for 15 minutes. A 10^-5 M solution of the test compound in DMSO is then added to the bath which is left to incubate for 30 minutes. Any effect on the beating rate due to the test compound is noted before the dose response curve to 2-chloroadenosine is repeated. Compounds which are adenosine antagonists attenuate the 2-chloroadenosine response.
Test compounds are assessed by comparing dose response curves to 2-chloroadenosine alone with those obtained in the presence of the compound. Competitive adenosine antagonists produce a parallel shift in the 2-chloroadenosine dose response curve. […] The pA2 is then obtained in an analogous manner to that referred to in (b) above.

A2 Adenosine receptor = molecular target: T2, A2 Adenosine receptor (Rattus norvegicus, UniProt P30543); assay: A2 Adenosine receptor affinity test ([3H]-NECA displacement, PC12 membranes); format: binding; conditions: displacement of [3H]-NECA from rat PC12 cell membranes
T2 construct: membrane preparations derived from the rat phaeochromocytoma cell line PC 12; host or cells: PC 12 (rat phaeochromocytoma), membranes
T2 sequence (P30543 whole entry): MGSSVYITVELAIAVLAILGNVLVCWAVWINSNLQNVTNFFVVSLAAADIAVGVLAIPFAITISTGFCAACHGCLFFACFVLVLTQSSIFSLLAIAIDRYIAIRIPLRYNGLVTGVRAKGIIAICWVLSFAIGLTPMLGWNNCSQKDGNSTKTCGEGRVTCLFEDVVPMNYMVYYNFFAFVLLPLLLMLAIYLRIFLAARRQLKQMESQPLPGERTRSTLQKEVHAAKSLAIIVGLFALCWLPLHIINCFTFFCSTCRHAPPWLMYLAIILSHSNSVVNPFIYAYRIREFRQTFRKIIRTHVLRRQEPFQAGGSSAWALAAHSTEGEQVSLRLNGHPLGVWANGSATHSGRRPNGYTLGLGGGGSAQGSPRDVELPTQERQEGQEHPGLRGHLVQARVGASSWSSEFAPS
Method: The membrane preparation is obtained as follows: Frozen pellets of PC12 cells are washed twice with ice cold, buffered, physiological saline and the cells recovered by centrifugation (1500 G) at 3° C. The separated cells are then suspended in hypotonic solution (distilled water), allowed to stand on ice for 30 minutes and are then carefully homogenized using a standard high-speed homogeniser with periodic ice-cooling to obtain a fine suspension. […] The mixture is then incubated at 37° C. After 20 minutes, the reaction is terminated by dilution with ice-cold buffer and transfer onto ice. The material obtained containing the cell membranes is recovered by centrifugation and washed by resuspension in buffer and recentrifugation. The pellet produced is then resuspended in ice-cold buffer using a hand-driven homogenizer. The resultant membrane suspension is frozen and stored under liquid nitrogen until required.
After incubation, the samples are rapidly filtered over glass-fibre mats and the filter mats are washed to remove non-receptor-bound radioligand. Receptor-bound radioligand entrapped on the filter mats is then determined by liquid scintillation counting. […] The specific binding (defined as the difference between the total binding and the non-specific binding) in the presence of the particular test compound is determined and compared with the control value.

[2] = tested on: adenosine receptor known as A2; assay: Guinea-pig Aortic Constriction Test; format: cell-based; conditions: antagonism of adenosine attenuation of phenylephrine induced constriction, guinea-pig aortic ring
Excerpt: (b) Guinea-pig Aortic Constriction Test
This test has been described by Collis et al. (British J. Pharmacology, 1989, 97, 1274-1278) and involves the assessment of the ability of a test compound to antagonise the attenuatory effect of adenosine on phenylephrine induced constriction of a guinea-pig aortic ring preparation, an effect mediated via the adenosine receptor known as A2.
The aortic ring preparation is obtained as follows:
Sections (3-5 mm) of guinea pig thoracic aorta (from Dunkin Hartley strain, 250-400 g males) are mounted in organ baths containing oxygenated Krebs solution (95% O2 : 5% CO2) at 37° C. [The nucleoside transport inhibitor, dipyridamole (10 μM) is present in the Krebs solution]. The isometric tension development is recorded and the tissue placed under a resting tension of 1 g and allowed to equilibrate for 1 hour. […] Adenosine is next added cumulatively (10^-7 M to 10^-3 M) and the evoked relaxation is measured. […]
Test compounds are assessed by plotting the percentage relaxation observed against the logarithm of the adenosine concentration, competitive adenosine antagonism producing a parallel shift in the standard adenosine concentration/relaxation (dose response) curve. […] The pA2 value, which is an estimate of the concentration of antagonist to give a dose ratio of 2, may also be calculated using a standard computation technique.

[3] = tested on: vasodilation response during twitch contraction of skeletal muscle; assay: Anaesthetised cat exercise hyperaemia test; format: in vivo; conditions: 10 mg.kg^-1
Method: (f) Anaesthetised cat exercise hyperaemia test
This test involves assessment of the effect of a test compound to antagonise the vasodilation response which occurs during twitch contraction of skeletal muscle. The vasodilation is mediated partly by the release of endogenous adenosine from the contracting skeletal muscle.
Cats (2.4-3.6 kg) are anaesthetised with sodium pentobarbitone (50 mg.kg^-1 ip). The following blood vessels are catheterized: left jugular vein (for infusion of anaesthetic, at approximately […] as a 6 mg.ml^-1 solution in isotonic saline), right external jugular vein (for administration of drugs and test compounds), right common carotid artery (for measurement of systemic arterial blood pressure and pulse rate) and right brachial artery (for withdrawal of blood).
Blood flow to the left hind limb is measured with an electromagnetic flow probe around the left external iliac artery. The whole of the left hind limb is made to contract at 3 Hz for 20 minutes duration by stimulating the sciatic and femoral nerves. Active tension produced by the extensor digitorum longus and peroneous longus muscles is measured isometrically with a force transducer. Exercise is repeated twice within the same animal, in either the absence or presence of the test compound. Test compounds are assessed for their ability to reduce the vasodilation during skeletal muscle contraction.

Kb [1] [nM]	IC50 (A2 Adenosine receptor) [nM]	Structure (SMILES)	pA2 [2]	inhibition of vasodilation during skeletal muscle contraction [3]
39.8	~25.1	Nc1nc(-c2ccccc2)nc2nc(-c3ccco3)nn12 [Example 1, 7-amino-2-(2-furyl)-5-phenyl-[1,2,4]-triazolo[1,5-a][1,3,5]triazine]	–	–
–	–	Cn1c(=O)c2[nH]cnc2n(C)c1=O [1,3-dimethylxanthine]	about 5	significant inhibition
